In patent US8158682B2, “Instillation administration of capsaicinoids for the treatment of pain” (Vallinex, Inc., priority 2008, dated 2012):
Values joined by “and” are separate entries in the source; they are usually repeats but may differ in a detail not shown here. Identical values can stand only once. “Also recorded” adds a separate entry of the source.

How the values were obtained:
[1] = test system: rat paw incision model; test: Rat paw incision model, postsurgical thermal hyperalgesia (thermal paw withdrawal latency); assay type: in vivo; conditions: for ED10 / ED20 / ED50: analgesic intensity, thermal hyperalgesia; for ED50: 5 minute intraoperative instillation
Procedure: (§1) Male Sprague-Dawley rats (Chrales River Laboratories, Inc., Wilimington, Mass., 225-250 g) were anesthetized with 2% isoflurane delivered via nose cone. Ten to 15 minutes before surgery, 100 μL of 2% lidocane was injected in the plantar surface of the right hind paw. A 1 centimeter incision (number 15 scalpel blade) was make through the skin, muscle, and fascia of the anesthetized paw, starting 5 mm from the proximal edge of the heel and extending toward the toes. After elevating the incised tissue, 20 μL of capsaicin formulation or vehicle were instilled into the surgical incision, allowed to dwell for pre-specified times, and then removed via aspiration using a cotton swab. The incision was apposed with 4 single interrupted mattress sutures of 5-0 nylon thread.
(§2) Animals were tested on the day before surgery (baseline) and on days 1, 2, 3, and 6 after surgery. Thermal sensitivity was assessed by thermal paw withdrawal latency as described by Hargreaves et al. (Hargreaves et al., J. Pain 32:77-88 (1988)). Mechanical hyperalgesia was assessed by the “up-down” algorithm of Chaplan et al. (Chaplan et al., J. Neurosci. Methods 53:55-63 (1994)).
(§3) In this study, animals in the active treatment groups received an intraoperative instillation of capsaicin (5 μg per 20 μL 50% PEG-300) for the designated times. Animals in the control groups received 20 μL of 50% PEG-300 for 5 minutes (vehicle) or no intraoperative treatment (sham). Graph points represent mean values; error bars are ±SEM.
(§4) In the study, animals in the active treatment groups received 5 minute intraoperative instillations of capsaicin formulation (1.5 μg to 150 μg per 20 μL of 50% PEG-300). Animals in the control groups received 5 minute intraoperative instillations of 20 μL of 50% PEG-300 (vehicle) or 5 minute intraoperative instillations of 20 μL of 50% PEG-300 plus subcutaneous buprenorphine (50 μg/kg) 1 hour before behavioral testing (Bup). Bars represent mean values; error bars are ±SEM.
The experimental data from FIG. 2 were used to calculate analgesic intensity (AI) as follows: AI(%)=100×([PWLtreat−PWLbasal]/[cut-off−PWLbasal]), where PWLtreat was the paw withdrawal latency after capsaicin treatment, PWLbasal was the paw withdrawal latency on day 1 after vehicle treatment, and cut-of was 20 seconds. […] (CI=confidence interval)

[2] = test system: rat paw incision model; test: Rat paw incision model, postsurgical mechanical hyperalgesia (paw withdrawal threshold, up-down); assay type: in vivo
Procedure: as §1, §2
as §3, with “(vehicle).” for “(vehicle) or no intraoperative treatment (sham).”
as §4, with “In this” for “In the”, “capsaicin (5, 15, or 75” for “capsaicin formulation (1.5 μg to 150”, “or subcutaneous injection” for “or 5 minute intraoperative instillations”, “of” for “of 20 μL of 50% PEG-300 plus subcutaneous”
In this study, animals in the active treatment groups received 5 minute intraoperative instillations of capsaicin (5, 15, or 75 μg per 20 μL of 50% PEG-300). Animals in the control groups received 5 minute intraoperative instillations of 20 μL of 50% PEG-300 (vehicle). Graph points represent mean values; error bars are ±SEM.

[3] = test system: sciatic nerve; test: Extrafascicular instillation on sciatic nerve: body weight, behavioral testing, nerve histology; assay type: in vivo, rat
Procedure: (§5) Adult CD Charles River rats were anesthetized with isoflurane and oxygen. Extrafascicular instillation: The sciatic nerve was exposed by blunt dissection and 100 μl of test article was applied directly to the sciatic nerve). Treatment groups received either vehicle (25% PEG 300), 0.0083 mg capsaicin (≧98% pure) or 0.025 mg capsaicin dissolved in vehicle. […] Osteotomy: The lateral aspect of the right femur was exposed and cut at the midshaft using an oscillating saw. An intramedullary Kirshner wire was inserted for fracture reduction and the osteotomy site irrigated with 100 μl of the vehicle (20% PEG 300, 10 mM histidine and 5% (w/v) sucrose) or 0.5 mg capsaicin diluted in vehicle.
Behavioral testing: Individual rats were placed in a black plexiglass observation box and parameters including posture, rearing, vocalization, bizarre behavior, mobility, and stereotypy were evaluated based on the methods of Moser et al. (Moser et al., Fundam. Appl. Toxicol. 11: 189-206 (1988)). Forelimb and hindlimb grip strength was measured using a strain gauge that recorded the maximum force in Kg as described by Meyer (Meyer et al. Neurobehav. Toxicol. 1:233-236 (1979) and Meyer and Ross (1966) U.S. Environmental Protection Agency, Wasington, D.C.) Hindlimb splay was quantitatively measured as described by Edwards et al. (Edwards et al., Toxicol Appl. Pharmacol. 40:589-591 (1977)). Thermal response was measured using the hot plate test as previously described by Ankier (Aniker Eur. J. Pharmacol. 27:1-4 (1974). The hot plate was set at 52° C. and the latency between placement of the animal on the heated surface and the first paw lick was recorded. The test was administered three times at predose and at days 3, 14 and 28 post-surgery and the values averaged.
(§6) Histology: Rats were euthanized by intraperitoneal injection of sodium pentobarbital (90 mg/Kg) followed by transcardiac perfusion with 0.9% saline then 3% paraformaldehyde and 3% glutaraldehyde in 0.1 M phosphate buffer. The entire length of sciatic nerve was embedded in paraffin or plastic and representative sections were taken from the treatment site and proximal and distal sites and stained with hematoxylin and eosin (H&E). Sections were scored for neuronal and myelin integrity, appearance and inflammation.
(§7) Statistics: Levene's test was used to assess homogeneity of group variances for each specified end point and for each data collection interval. If Levene's test was not significant (P>0.01), a pooled estimate of the variance (Means Square Error) was computed from a one-way analysis of variance (ANOVA) and utilized by Dunnett's comparison of each treatment group with the control group. If Levene's test was significant (P<0.01), comparisons with the control group were made using Welch's t-test with a Bonferroni correction.

[4] = test system: osteotomy site; test: Femur osteotomy: histology and biomechanical testing (4-point bending); assay type: in vivo, rat
Procedure: as §5, §6
Biomechanical Testing: Both osteotomized and contralateral whole femurs were tested in 4-point bending with a servohydrolic material test system (858 Mini Bionix) to determine the material properties of the cortical bone. Peak load, energy to break (area under the curve) and stiffness were derived. Peak load was measured as the maximum height of the load-displacement curve, and stiffness was measured as the slope of the linear portion of the load-displacement curve.
as §7

[5] = cited from earlier work
[6] = intraoperative instillation, rat paw incision model
[7] = 0.5 mg, right femur, vs vehicle (FIG. 14)

For `COc1cc(CNC(=O)CCCC/C=C/C(C)C)ccc1O` [capsaicin, N-(4-hydroxy-3-methoxybenzyl)-8-methylnon-trans-6-enamide], the “dose dependence of reduction of postsurgical thermal hyperalgesia” value ([1]; 1.5 μg to 150 μg per 20 μL 50% PEG-300, 5 minute instillation (FIG. 2)) was “dose-dependant; also recorded: dose-dependent”, the “postsurgical thermal hyperalgesia (PWL)” value ([1]; 5 μg per 20 μL 50% PEG-300, instillation 5 or 10 minutes, post-surgical days 1, 2, 3, vs vehicle and sham (FIG. 1)) was “significantly lower thermal hyperalgesia; also recorded: reduces postsurgical thermal hyperalgesia” and the ED10 ([1]; day 1 after surgery) was 3.46 µg. It also gave an ED20 ([1]; day 1 after surgery) of 7.77 µg, an ED50 ([1]; day 1 after surgery) of 31.01 µg and an ED10 ([1]; day 2 after surgery) of 2.99 µg. It also gave an ED20 ([1]; day 2 after surgery) of 8.38 µg, an ED50 ([1]; day 2 after surgery) of 48.53 µg and an ED10 ([1]; day 3 after surgery) of 1.84 µg. The ED20 ([1]; day 3 after surgery) was 6.09 µg, the ED50 ([1]; day 3 after surgery) was 47.09 µg and 47.08 µg and the “duration of sustained analgesia” value [1, 6] was “up to 6 days”. The “potency against thermal versus mechanical hyperalgesia” value [1, 6] was “higher potency against postsurgical thermal hyperalgesia than mechanical hyperalgesia”, the “postsurgical mechanical hyperalgesia (PWT)” value ([2]; 5 μg per 20 μL 50% PEG-300, designated dwell times (FIG. 4)) was “did not reduce postsurgical mechanical hyperalgesia; also recorded: does not reduce postsurgical mechanical hyperalgesia” and the “postsurgical mechanical hyperalgesia (PWT)” value ([2]; 75 μg, 5 minute instillation, vs vehicle (FIG. 5)) was “produced significant analgesic effects relative to vehicle; also recorded: reduces postsurgical mechanical hyperalgesia”. For the same compound, the “postsurgical mechanical hyperalgesia (PWT) over time” value ([2]; 75 μg, 5 minute instillation, vs vehicle, days 1 and 3 (FIG. 6)) was “greater after an instillation of 75 μg capsaicin formulation than vehicle; also recorded: reduces postsurgical mechanical hyperalgesia”, the “dose dependence of reduction of postsurgical mechanical hyperalgesia” value ([2]; 5, 15 or 75 μg per 20 μL 50% PEG-300, 5 minute instillation (FIG. 5)) was “dose-dependant” and the “sciatic nerve histology (H&E), appearance” value ([3]; 0.025 mg extrafascicular instillation, 3 days or 28 days post treatment, vs sham operated (FIG. 12)) was “no difference in appearance”. For the same compound, the activity/arousal ([3]; extrafascicular instillation (FIG. 8)) was “does not effect activity/arousal”, the hindpaw splay ([3]; extrafascicular instillation (FIG. 10)) was “no effect on hindpaw splay” and the “thermal withdrawal (hot plate, 52° C.)” value ([3]; extrafascicular instillation (FIG. 11)) was “no effect on thermal withdrawal”. For the same compound, the “adverse effects on structural integrity of exposed nerve” value ([3]; extrafascicular instillation, summary) was “no observable adverse effects”, the weight gain ([3]; extrafascicular instillation, first 10 post-operative days, vs sham-operated rats (FIG. 7)) was “reduces weight gain” and the hindpaw grip strength ([3]; extrafascicular instillation, post operative days 3 and 14 (FIG. 9)) was “decreases hindpaw grip strength”. For the same compound, the “osteotomy site histology (H&E)” value ([4]; 0.5 mg vs vehicle (FIG. 13)) was “show no differences”, the “general integrity of bone structure (AUC, energy to break)” value [4, 7] was “no difference” and the peak load [4, 7] was “no difference”. The stiffness [4, 7] was “no difference”, the “adverse effects on wound and bone healing following osteotomy” value ([4]; instillation, summary) was “no observable adverse effects” and the “solubility in organic solvents” value ([5]; alcohol, ether, benzene and chloroform) was “freely soluble”. For the same compound, the solubility in water ([5]; water) was “practically insoluble”.
